In brackets after ≈: the same amount, converted by molar mass. Where two headings read alike, the source gives them in different places.
Key:
Assay in all cases: MIC, broth-microdilution (CLSI VET01-A4)
Assay type in all cases: cell-based
[1] = test system: Mannheimia haemolytica MH 13093 (XB0472-6014.1, BRD field isolate)
Procedure, shortened: (§1)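 Broth microdilution per CLSI VET01-A4 using doubling dilution series of compound. MIC taken as the lowest concentration with no turbidity visible to the unaided eye, interpreted per CLSI VET01-S3.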

[2] = test system: Mannheimia haemolytica MH 13065 (XB0446-6003.9, BRD field isolate)
Procedure, shortened: as §1

[3] = test system: Pasteurella multocida PM 10775 (080130003051, BRD field isolate); details: Pasteurella multocida PM 10775
Procedure, shortened: (§2)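 Read-out is visual: the MIC is the lowest compound concentration at which no turbidity is seen by eye. Trays carried a doubling dilution series, with interpretation following CLSI VET01-S3.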

[4] = test system: Pasteurella multocida PM 6267 (P 2225 (L386), reference strain, mouse infection strain); details: Pasteurella multocida PM 6267
Procedure, shortened: as §2

[5] = test system: Mannheimia haemolytica MH 6357 (M7/2, reference strain, cattle infection strain); details: Mannheimia haemolytica MH 6357; for MIC: read-out: MIC MH 6357
Procedure, shortened: as §2

[6] = test system: Mannheimia haemolytica MH 6374 (ATCC 33396, reference strain); details: Mannheimia haemolytica MH 6374; for MIC: read-out: MIC MH 6374
Procedure, shortened: as §2

[7] = test system: Mannheimia haemolytica MH 12587 (1071, BRD field isolate, macrolide-resistance: erm+, E+); details: for MIC MH 12587: Mannheimia haemolytica MH 12587, macrolide-resistant
Procedure, shortened: as §2

[8] = test system: Pasteurella multocida PM 6391 (ATCC 43137, reference strain); details: Pasteurella multocida PM 6391; for MIC: read-out: MIC PM 6391
Procedure, shortened: as §2

[9] = test system: Mannheimia haemolytica MH 10720 (154, BRD field isolate); details: Mannheimia haemolytica MH 10720
Procedure, shortened: as §2

[10] = test system: Pasteurella multocida PM 12080 (IV102277-0093, BRD field isolate); details: Pasteurella multocida PM 12080; for MIC: read-out: MIC PM 12080
Procedure, shortened: as §2

C[C@@H](O)[C@H](NC(=O)c1ccc(C#Cc2ccc(CNCc3ccccc3)s2)cc1)C(=O)NO [Compound 195]
MIC [1]: 0.4 µM (≈ 0.185 µg/mL)
MIC [2]: 0.4 µM (≈ 0.185 µg/mL)
MIC PM 10775 [3]: <=0.1 μM
MIC PM 6267 [4]: <=0.1 μM
MIC [5]: 0.2 µM (≈ 0.0927 µg/mL)
MIC [6]: 0.2 µM (≈ 0.0927 µg/mL)
MIC MH 12587 [7]: 0.8 µM (≈ 0.371 µg/mL)
MIC PM 6391 [8]: <=0.1 μM
MIC MH 10720 [9]: <=0.1 μM
MIC PM 12080 [10]: <=0.1 μM

C[C@@H](O)[C@H](NC(=O)c1ccc(C#Cc2ccc(CN(C)Cc3ccccc3)s2)cc1)C(=O)NO [Compound 196]
MIC [1]: 0.8 µM (≈ 0.382 µg/mL)
MIC [2]: 0.8 µM (≈ 0.382 µg/mL)
MIC PM 10775 [3]: <=0.1 μM
MIC PM 6267 [4]: <=0.1 μM
MIC [5]: 0.4 µM (≈ 0.191 µg/mL)
MIC [6]: 0.8 µM (≈ 0.382 µg/mL)
MIC MH 12587 [7]: 1.6 µM (≈ 0.764 µg/mL)
MIC PM 6391 [8]: <=0.1 μM
MIC MH 10720 [9]: <=0.1 μM
MIC PM 12080 [10]: <=0.1 μM

C[C@@H](O)[C@H](NC(=O)c1ccc(C#Cc2ccc(CN3CCc4ccccc4C3)o2)cc1)C(=O)NO [Compound 203]
MIC [1]: 0.8 µM (≈ 0.379 µg/mL)
MIC [2]: 0.8 µM (≈ 0.379 µg/mL)
MIC PM 10775 [3]: <=0.1 μM
MIC PM 6267 [4]: <=0.1 μM
MIC [5]: 0.8 µM (≈ 0.379 µg/mL)
MIC [6]: 0.8 µM (≈ 0.379 µg/mL)
MIC MH 12587 [7]: 1.6 µM (≈ 0.758 µg/mL)
MIC [8]: 0.4 µM (≈ 0.189 µg/mL)
MIC MH 10720 [9]: <=0.1 μM
MIC [10]: 0.2 µM (≈ 0.0947 µg/mL)

C[C@@H](O)[C@H](NC(=O)c1ccc(C#Cc2ccc(CN(C)Cc3ccccc3)o2)cc1)C(=O)NO [Compound 205]
MIC [1]: 1.6 µM (≈ 0.738 µg/mL)
MIC [2]: 0.8 µM (≈ 0.369 µg/mL)
MIC PM 10775 [3]: <=0.1 μM
MIC PM 6267 [4]: <=0.1 μM
MIC [5]: 0.8 µM (≈ 0.369 µg/mL)
MIC [6]: 0.8 µM (≈ 0.369 µg/mL)
MIC MH 12587 [7]: 1.6 µM (≈ 0.738 µg/mL)
MIC [8]: 0.4 µM (≈ 0.185 µg/mL)
MIC MH 10720 [9]: <=0.1 μM
MIC [10]: 0.2 µM (≈ 0.0923 µg/mL)

C[C@@H](O)[C@H](NC(=O)c1ccc(C#Cc2ccc([N+](=O)[O-])cc2)cc1)C(=O)NO [Compound 243, N-[(1S,2R)-2-hydroxy-1-(hydroxycarbamoyl)propyI]-4-[2-(4-nitrophenyl)ethynyl]benzamide]
MIC [1]: 1.6 µM (≈ 0.613 µg/mL)
MIC [2]: 0.4 µM (≈ 0.153 µg/mL)
MIC ([3]; read-out: MIC PM 10775): ≤ 0.1 µM
MIC ([4]; read-out: MIC PM 6267): ≤ 0.1 µM
MIC [5]: 0.2 µM (≈ 0.0767 µg/mL)
MIC ([6]; ATCC33396): 0.4 µM (≈ 0.153 µg/mL)
MIC ([7]; Mannheimia haemolytica, read-out: MIC MH 12587): 0.8 µM (≈ 0.307 µg/mL)
MIC ([8]; ATCC43137): 0.2 µM (≈ 0.0767 µg/mL)
MIC ([9]; read-out: MIC MH 10720): ≤ 0.1 µM
MIC [10]: 0.2 µM (≈ 0.0767 µg/mL)

C[C@@H](O)[C@H](NC(=O)c1ccc(C#Cc2ccc(CNCc3cccnc3)cc2)cc1)C(=O)NO [Compound 256]
MIC [1]: 0.8 µM (≈ 0.367 µg/mL)
MIC [2]: 0.8 µM (≈ 0.367 µg/mL)
MIC PM 10775 [3]: <=0.1 μM
MIC PM 6267 [4]: <=0.1 μM
MIC [5]: 0.4 µM (≈ 0.183 µg/mL)
MIC [6]: 0.4 µM (≈ 0.183 µg/mL)
MIC MH 12587 [7]: 1.6 µM (≈ 0.734 µg/mL)
MIC PM 6391 [8]: <=0.1 μM
MIC MH 10720 [9]: <=0.1 μM
MIC PM 12080 [10]: <=0.1 μM

C[C@@H](O)[C@H](NC(=O)c1ccc(C#Cc2ccc(CNCc3ccnc(Cl)c3)cc2)cc1)C(=O)NO [Compound 257]
MIC [1]: 0.4 µM (≈ 0.197 µg/mL)
MIC [2]: 0.4 µM (≈ 0.197 µg/mL)
MIC PM 10775 [3]: <=0.1 μM
MIC PM 6267 [4]: <=0.1 μM
MIC [5]: 0.2 µM (≈ 0.0986 µg/mL)
MIC [6]: 0.2 µM (≈ 0.0986 µg/mL)
MIC MH 12587 [7]: 0.8 µM (≈ 0.394 µg/mL)
MIC PM 6391 [8]: <=0.1 μM
MIC MH 10720 [9]: <=0.1 μM
MIC PM 12080 [10]: <=0.1 μM

C[C@@H](O)[C@H](NC(=O)c1ccc(C#Cc2ccc(CNCc3cccs3)cc2)cc1)C(=O)NO [Compound 260]
MIC [1]: 0.4 µM (≈ 0.185 µg/mL)
MIC [2]: 0.4 µM (≈ 0.185 µg/mL)
MIC PM 10775 [3]: <=0.1 μM
MIC PM 6267 [4]: <=0.1 μM
MIC MH 6357 [5]: <=0.1 μM
MIC MH 6374 [6]: <=0.1 μM
MIC MH 12587 [7]: 0.4 µM (≈ 0.185 µg/mL)
MIC PM 6391 [8]: <=0.1 μM
MIC MH 10720 [9]: <=0.1 μM
MIC PM 12080 [10]: <=0.1 μM

Cc1ccc(CNCc2ccc(C#Cc3ccc(C(=O)N[C@H](C(=O)NO)[C@@H](C)O)cc3)cc2)cc1 [Compound 261]
MIC [1]: 0.8 µM (≈ 0.377 µg/mL)
MIC [2]: 0.4 µM (≈ 0.189 µg/mL)
MIC PM 10775 [3]: <=0.1 μM
MIC PM 6267 [4]: <=0.1 μM
MIC [5]: 0.2 µM (≈ 0.0943 µg/mL)
MIC [6]: 0.2 µM (≈ 0.0943 µg/mL)
MIC MH 12587 [7]: 0.8 µM (≈ 0.377 µg/mL)
MIC PM 6391 [8]: <=0.1 μM
MIC MH 10720 [9]: <=0.1 μM
MIC PM 12080 [10]: <=0.1 μM

Reference: patent US20230000813A1, “COMPOUND FOR THE TREATMENT OF BOVINE OR SWINE RESPIRATORY DISEASE” (Intervet Inc., priority 2016, published 2023)
